Measured values as given in patent publication EP1144365B1 (TANABE SEIYAKU CO., LTD., priority 1998, dated 2000).
pIC50: −log10 of the molar value. Where a name gives a salt, the structure may show the parent alone.

Legend:
[1] = biological target: T1, α4β1 integrin (Homo sapiens, UniProt P05556+P13612); assay: Jurkat-Endothelial Cell Adhesion Assay (Jurkat EC); type: cell-based; details: Jurkat cell adhesion to IL-1 stimulated endothelial cell monolayers
T1 construct: a T-cell line, Jurkat, known to express the α4β1 integrin; host or cells: Jurkat T-cell line
Procedure: The following assay established the activity of the present compounds in inhibiting β1-mediated cell adhesion in a representative in vitro system. This assay measures the adhesive interactions of a T-cell line, Jurkat, known to express the α4β1 integrin, to endothelial monolayers in the presence of test compounds. The test compounds were added in increasing concentrations to T-cells and then the T-cell compound mixture was added to IL-1 stimulated endothelial cell monolayers. The plates were incubated, washed and the percentage of attached cells was quantitated.
Human umbilical vein endothelial cells were purchased from Clonetics (San Diego, CA.) at passage number 2. The cells were grown on 0.5% porcine skin gelatin pre-coated flasks (Sigma, St. Louis MO.) in EGM-UV media (Clonetics, San Diego, CA) supplemented with 10% fetal bovine serum. Cells are refed every 2-3 days reaching confluence by day 4 to 6. […] The endothelial cells are not used following passage 6.
The T-cell line Jurkat was obtained from American Type Tissue Culture Collection (Rockville, MD) and the cells were cultured in RPMI containing 10 % fetal calf serum. The cells were washed twice in Hank's Balanced Salt Solution (HBSS) and resuspended in Dulbecco's Minimal Eagle's Media (DMEM) containing 2.5 mg/ml Human Serum Albumin (HSA). Jurkat cells (1x10^6 cells/ml) were stained with 10 ng/ml BCECF-AM (Molecular Probes, Eugene, OR)) in HBSS without phenol red. The cells were loaded with BCECF for 60 minutes in the dark at 37°C, washed 2 times, and resuspended in DMEM-HSA solution.
Confluent endothelial monolayers, grown in 96-well tissue culture plates, were stimulated for 4 hr. at 37 °C with 0.1 ng/ml (∼50 U/ml) recombinant IL-1 (Amgen, Thousand Oaks, CA). Following this incubation, the monolayers were washed twice with HBSS and 0.1 ml of DMEM-HSA solution was added. Jurkat cells (5 x 10^5 cells) were combined with the appropriate concentration of the test compound and 0.1 ml of the Jurkat cell-compound mixture was added to the endothelial cell monolayers. Generally, 100, 20, 5 and 1.25 µM compound concentrations were tested. […] Following this incubation, the monolayers were washed twice with PBS containing 1 mM calcium chloride and 1 mM magnesium chloride' and the plates were read using a Millipore Cytofluor 2300 (Marlboro, MA.). Fluorescence in each well was measured as Arbitrary Fluorescence Units and percent adhesion in the absence of compound was adjusted to 100% and the % adhesion in the presence of compound was calculated. Monolayers were also fixed in 3% paraformaldehyde and evaluated microscopically to verify the adhesion. This procedure is a modification of a previously published method (Cardarelli et al., J. Biol. Chem. 269:18668-18673 (1994)).

[2] = biological target: T2, α4β1 (Homo sapiens, UniProt P05556+P13612); assay: Jurkat-CS-1 assay; type: cell-based; details: Jurkat cell adhesion to immobilized CS-1 derived peptide
T2 construct: 100 µl of Jurkat cells (2.5 x 10^6 cells/ml) in DMEM plus BSA; host or cells: Jurkat T-cell line
Procedure: The CS-1 derived peptide, CLHPGEILDVPST, and the scrambled control peptide, CLHGPIELVSDPT, were synthesized on a Beckman 990 synthesizer using t-Boc methodology. The peptides were immobilized onto microtiter plates using the heterobifunctional crosslinker 3-(2-pyridyldithio)propionic acid N-hydroxysuccinimide ester (SPDP) as reported by Pierschbacher et al., Proc. Natl. Acad. USA, 80:1224-1227 (1983). Microtiter plates were coated with 20 µg/ml HSA for 2 hr. at room temperature, washed once with PBS and derivatized with 10 µg/ml SPDP for 1 hr. After washing, 100 µl of a 100 µg/ml cysteine containing peptide solution which had been recently dissolved was added to the wells and allowed to crosslink to the plates overnight at 4 °C. Unbound peptide was removed from plates by washing with PBS. To block non-reacted sites, the plates are coated with 100 µl of a 2.5 mg/ml BSA solution in PBS for 1 hr. at 37 °C. 100 µl of Jurkat cells (2.5 x 10^6 cells/ml) in DMEM plus BSA (2.5 mg/ml) was mixed with an appropriate concentration of the compound to be tested and the mixture was added to peptide coated dishes and incubated for 1 hr. at 37 °C. Generally 100, 20, 5 and 1.25 µM concentrations of the compound were tested.
Following this incubation the plates were washed once with PBS and the attached cells were fixed with 3% paraformaldehyde in PBS and stained with 0.5% toluidine blue in 3.7% formaldehyde. The cells were stained overnight at room temperature and the optical density at 590 nm of toluidine blue stained cells was determined using a vertical pathway spectrophotometer to quantitate attachment (VMAX Kinetic Microplate Reader, Molecular Devices, Menlo Park, CA). This procedure is a modification of a previously published method (Cardarelli et al, J. Biol. Chem., 269:18668-18673 (1994) and Cardarelli et al, Proc. Natl. Acad. Sci. USA, 83:2647-2651 (1986)).

T2 sequence (P13612 34-1032): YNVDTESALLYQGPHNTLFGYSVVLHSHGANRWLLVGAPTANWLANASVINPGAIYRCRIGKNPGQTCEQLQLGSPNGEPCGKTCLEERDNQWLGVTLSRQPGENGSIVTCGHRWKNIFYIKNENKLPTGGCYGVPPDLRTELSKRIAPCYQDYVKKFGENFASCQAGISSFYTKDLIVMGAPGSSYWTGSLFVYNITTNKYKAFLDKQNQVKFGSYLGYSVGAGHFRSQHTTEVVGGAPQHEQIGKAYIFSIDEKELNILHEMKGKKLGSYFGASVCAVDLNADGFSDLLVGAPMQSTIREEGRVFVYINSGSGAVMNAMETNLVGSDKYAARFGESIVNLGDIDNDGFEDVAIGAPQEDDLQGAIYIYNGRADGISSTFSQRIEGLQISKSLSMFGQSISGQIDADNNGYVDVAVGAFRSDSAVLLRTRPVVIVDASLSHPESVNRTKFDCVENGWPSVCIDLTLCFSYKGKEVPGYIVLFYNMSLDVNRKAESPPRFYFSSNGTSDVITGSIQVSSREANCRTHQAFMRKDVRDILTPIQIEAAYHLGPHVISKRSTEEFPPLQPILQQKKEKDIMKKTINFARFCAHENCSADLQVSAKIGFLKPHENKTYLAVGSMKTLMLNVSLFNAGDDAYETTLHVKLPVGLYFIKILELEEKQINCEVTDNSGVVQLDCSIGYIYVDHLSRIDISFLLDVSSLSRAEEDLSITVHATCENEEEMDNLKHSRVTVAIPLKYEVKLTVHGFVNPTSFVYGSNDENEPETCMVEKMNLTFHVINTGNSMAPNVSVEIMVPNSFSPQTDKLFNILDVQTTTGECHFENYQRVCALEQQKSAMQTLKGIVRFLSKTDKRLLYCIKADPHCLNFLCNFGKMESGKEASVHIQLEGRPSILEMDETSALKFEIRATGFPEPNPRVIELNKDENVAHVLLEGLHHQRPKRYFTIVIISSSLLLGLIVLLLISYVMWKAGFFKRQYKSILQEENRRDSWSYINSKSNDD
T2 sequence (P05556 21-798): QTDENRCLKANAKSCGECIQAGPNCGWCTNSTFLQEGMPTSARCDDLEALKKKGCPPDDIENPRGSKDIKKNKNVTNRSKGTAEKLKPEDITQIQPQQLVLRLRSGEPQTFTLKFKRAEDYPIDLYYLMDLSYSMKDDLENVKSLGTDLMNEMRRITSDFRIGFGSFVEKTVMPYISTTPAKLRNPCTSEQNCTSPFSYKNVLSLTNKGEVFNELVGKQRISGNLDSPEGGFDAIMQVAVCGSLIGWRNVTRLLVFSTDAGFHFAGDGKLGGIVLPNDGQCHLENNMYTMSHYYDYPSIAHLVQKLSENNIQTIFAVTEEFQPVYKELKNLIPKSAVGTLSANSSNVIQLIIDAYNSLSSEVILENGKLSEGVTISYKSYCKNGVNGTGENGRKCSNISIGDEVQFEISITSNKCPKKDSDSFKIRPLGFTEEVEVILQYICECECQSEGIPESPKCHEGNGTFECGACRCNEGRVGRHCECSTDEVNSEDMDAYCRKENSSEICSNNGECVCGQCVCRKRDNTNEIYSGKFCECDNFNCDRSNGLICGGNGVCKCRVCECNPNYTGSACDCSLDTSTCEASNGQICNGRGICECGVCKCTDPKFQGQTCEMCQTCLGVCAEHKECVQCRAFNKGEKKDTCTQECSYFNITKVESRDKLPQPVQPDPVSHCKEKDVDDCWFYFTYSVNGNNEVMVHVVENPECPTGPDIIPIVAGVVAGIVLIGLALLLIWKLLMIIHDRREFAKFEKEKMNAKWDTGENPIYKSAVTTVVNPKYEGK
T1 sequence (P13612 34-1032): as the sequence (P13612 34-1032) above
T1 sequence (P05556 21-798): as the sequence (P05556 21-798) above

SMILES	pIC50 [1]	pIC50 [2]
O=C(O)/C=C/c1cccc(C(=O)N[C@@H](Cc2ccc(NC(=O)c3c(Cl)cccc3Cl)cc2)C(=O)O)c1 [Example 124, N-[[3-[(E)-3-Hydroxy-3-oxo-1-propenyl]phenyl]carbonyl]-4-[(2,6-dichlorobenzoyl)amino]-L-phenylalanine]	5.30 to 6.10	6.00 to 6.30
CC(=O)c1cccc(OC(C)(C)C(=O)N[C@@H](Cc2ccc(NC(=O)c3c(Cl)cccc3Cl)cc2)C(=O)O)c1 [Example 19]	5.30 to 6.10	6.00 to 6.30
O=C(O)/C=C1\CCCc2cc(C(=O)N[C@@H](Cc3ccc(NC(=O)c4c(Cl)cccc4Cl)cc3)C(=O)O)ccc21 [Example 135, N-[[(5E)-5-Carboxymethylene-7,8-dihydro-2(6H)-naphthyl]carbonyl]-4-[(2,6-dichlorobenzoyl)amino]-L-phenylalanine sodium salt]	5.00 to 5.30	6.00 to 6.30
CC(=O)[C@@H]1C[C@H](C(=O)N[C@@H](Cc2ccc(NC(=O)c3ccc(Cl)nc3Cl)cc2)C(=O)O)C1(C)C [Example 107, (1S-cis)-N-[(3-Acetyl-2,2-dimethylcyclobutyl)carbonyl]-4-[[(2,6-dichloro-3-pyridinyl)carbonyl]amino]-L-phenylalanine]	5.30 to 6.10	6.30 to 7.10
O=C(O)c1cccc(C(=O)NC2(C(=O)N[C@@H](Cc3ccc(NC(=O)c4c(Cl)cccc4Cl)cc3)C(=O)O)CC3CCC2C3)n1 (some centres unmarked) [Example 71]	5.30 to 6.10	6.30 to 7.10
O=C(O)c1ccccc1C(=O)NC1(C(=O)N[C@@H](Cc2ccc(NC(=O)c3c(Cl)cccc3Cl)cc2)C(=O)O)CCCCC1 [Example 56]	5.30 to 6.10	6.30 to 7.10
CC(=O)[C@@H]1C[C@@H](C(=O)N[C@@H](Cc2ccc(NC(=O)c3c(Cl)cccc3Cl)cc2)C(=O)O)C1(C)C [Example 100, (1R-trans)-N-[(3-Acetyl-2,2-dimethylcyclobutyl]carbonyl]-4-[(2,6-dichlorobenzoyl)amino]-L-phenylalanine]	5.30 to 6.10	6.30 to 7.10
O=C(O)CC1(CC(=O)NC2(C(=O)N[C@@H](Cc3ccc(NC(=O)c4c(Cl)cccc4Cl)cc3)C(=O)O)CCCCC2)CCCC1 [Example 47]	5.00 to 5.30	6.30 to 7.10
O=C(O)c1cccc(C(=O)N[C@H]2CCCC[C@H]2C(=O)N[C@@H](Cc2ccc(NC(=O)c3c(Cl)cccc3Cl)cc2)C(=O)O)n1 (relative stereo) [Example 80]	5.30 to 6.10	6.30 to 7.10
O=C(NC1(C(=O)N[C@@H](Cc2ccc(NC(=O)c3c(Cl)cccc3Cl)cc2)C(=O)O)CC2CCC1C2)c1cccnc1 (some centres unmarked) [Example 70]	5.30 to 6.10	6.30 to 7.10

The remaining lines, values ahead:

pIC50 [1]	pIC50 [2]	SMILES
5.30 to 6.10	6.30 to 7.10	O=C(C=C1CCC(C(=O)O)CC1)N[C@@H](Cc1ccc(NC(=O)c2c(Cl)cccc2Cl)cc1)C(=O)O (stereo partly drawn) [Example 127, N-[4-Carboxy-1-cyclohexylideneacetyl]-4-[(2,6-dichlorobenzoyl)amino]-L-phenylalanine]
≥ 6.10	≥ 7.10	O=C(O)/C=C1/CCCc2c(C(=O)N[C@@H](Cc3ccc(NC(=O)c4c(Cl)cccc4Cl)cc3)C(=O)O)cccc21 [Example 131, N-[[(5Z)-5-Carboxymethylene-7,8-dihydro-1(6H)-naphthyl]carbonyl]-4-[(2,6-dichlorobenzoyl)amino]-L-phenylalanine]
≥ 6.10	≥ 7.10	CC1=C(C(=O)N[C@@H](Cc2ccc(OCc3c(Cl)cccc3Cl)cc2)C(=O)O)C(C)(C)CC/C1=C\C(=O)O [Example 119, N-[[(3E)-3-Carboxymethylene-2,6,6-trimethyl-1-cyclohexen-1-yl]carbonyl]-4-O-(2,6-dichlorophenylmethyl)-L-tyrosine]
≥ 6.10	6.30 to 7.10	O=C(Nc1ccc(CC(NC(=O)C2CCCCC2NC(=O)C2NC(C(=O)O)CS2)C(=O)O)cc1)c1c(Cl)cccc1Cl (centres unmarked) [Example 84]
5.30 to 6.10	6.30 to 7.10	O=C(O)c1ccc(C(=O)NC2CCCCC2C(=O)NC(Cc2ccc(NC(=O)c3c(Cl)cccc3Cl)cc2)C(=O)O)nc1 (centres unmarked) [Example 81]
5.30 to 6.10	6.00 to 6.30	O=C(O)/C=C\C(=O)Nc1cccc(C(=O)N[C@@H](Cc2ccc(NC(=O)c3c(Cl)cccc3Cl)cc2)C(=O)O)c1 [Example 36]
≥ 6.10	6.30 to 7.10	O=C(Nc1ccc(CC(NC(=O)C2CCCCC2NC(=O)C2CCOC2)C(=O)O)cc1)c1c(Cl)cccc1Cl (centres unmarked) [Example 87]
≥ 6.10	6.30 to 7.10	O=C(Nc1ccc(C[C@H](NC(=O)N2CCCC(C(=O)O)C2)C(=O)O)cc1)c1c(Cl)cccc1Cl (stereo partly drawn) [Example 116, 1-[[[(1S)-1-carboxy-2-[4-[(2,6-dichlorobenzoyl)amino]phenyl]ethyl]amino]carbonyl]-3-piperidinecarboxylic acid]
≥ 6.10	6.30 to 7.10	O=C(O)c1ccc(C(=O)NC2(C(=O)N[C@@H](Cc3ccc(NC(=O)c4c(Cl)cccc4Cl)cc3)C(=O)O)CCCCC2)nc1 [Example 63]
≥ 6.10	≥ 7.10	CC(=O)[C@H]1C[C@H](C(=O)N[C@@H](Cc2ccc(NC(=O)c3c(Cl)cccc3Cl)cc2)C(=O)O)C1(C)C [Example 96, (1S-trans)-N-[(3-Acetyl-2,2-dimethylcyclobutyl)carbonyl]-4-[(2,6-dichlorobenzoyl)amino]-L-phenylalanine]
≥ 6.10	6.30 to 7.10	O=C(Nc1ccc(C[C@H](NC(=O)C2(NC(=O)C3CCOC3)CC3CCC2C3)C(=O)O)cc1)c1c(Cl)cccc1Cl (some centres unmarked) [Example 78]
≥ 6.10	6.30 to 7.10	O=C(O)c1cccc(C(=O)NC2(C(=O)N[C@@H](Cc3ccc(NC(=O)c4c(Cl)cccc4Cl)cc3)C(=O)O)CCCCC2)c1 [Example 57]
≥ 6.10	6.30 to 7.10	O=C(Nc1ccc(C[C@H](NC(=O)N2CCCC(C(=O)O)C2)C(=O)O)cc1)c1c(Cl)cccc1Cl (stereo partly drawn) [Example 114, 1-[[[(1S)-1-carboxy-2-[4-[(2,6-dichlorobenzoyl)amino]phenyl]ethyl]amino]carbonyl]-3-piperidinecarboxylic acid]
≥ 6.10	6.30 to 7.10	CC1(C)[C@@H](C(=O)O)C[C@@H]1C(=O)N[C@@H](Cc1ccc(OCc2c(Cl)cccc2Cl)cc1)C(=O)O [Example 94, (1S-trans)-N-[(3-Carboxy-2,2-dimethylcyclobutyl)carbonyl]-4-[(2,6-dichlorophenyl)methoxy]-L-phenylalanine]
≥ 6.10	≥ 7.10	CC1=C(C(=O)N[C@@H](Cc2ccc(NC(=O)c3c(Cl)cccc3Cl)cc2)C(=O)O)C(C)(C)CC/C1=C\C(=O)O [Example 118, N-[[(3E)-3-Carboxymethylene-2,6,6-trimethyl-1-cyclohexen-1-yl]carbonyl]-4-[(2,6-dichlorobenzoyl)amino]-L-phenylalanine]
